In patent publication US20090202572A1, “COMPOSITIONS AND METHODS FOR MODULATING BONE MASS” (priority 2004, published 2009):
Entries after “also recorded” stand apart in the source; their conditions may differ. Read-outs that look alike come from different tables or passages of the source.

How the values were obtained:
WT osteoblasts = test: cAMP production in osteoblasts; format: cell-based, mouse
Source text: β2AR is the only post-synaptic β-AR whose expression can be detected in osteoblasts. […] Thus, we used Adrb2−/− mice to study how sympathetic signaling affects bone remodeling in adult animals.

primary osteoblasts = test: Gene expression in primary osteoblasts by real-time RT-PCR; format: cell-based, mouse
Experimental: (§1) BBMs were differentiated with the indicated amounts of RANK-L and MCS-F and the number of TRAP+ osteoclasts was counted after 5 days. […] BBMs were differentiated in presence of MCS-F and RANK-L with or without 10 uM ISO and the number of TRAP+ osteoclasts was counted after 5 days. […] BBMs were differentiated in presence of MCS-F and RANK-L and were treated by ISO (10 μM), dobutamine (Dobu, 10 μM) or calcitonin (100 pg/ml). Intracellular cAMP production was measured by EIA. […] Osteoblasts and BMMs were co-cultured with 1,25(OH)2-vitamin D (10^-8 M) with or without ISO (10 uM) and the number of TRAP+ osteoclasts was counted after 4 days. […] WT and Adrb2 primary osteoblasts were treated for the indicated time with ISO (10 μM) and gene expression was quantified by real-time RT-PCR. (g) Schematic diagram of the structure of Rank-1 and IL6 promoters. Boxes represent CREB-like consensus binding sites.
To test this hypothesis we analyzed the expression in osteoblasts of genes encoding known regulators of osteoclast differentiation following treatment with isoproterenol.

[1] = test system: bone marrow macrophages (BMMs); test: In vitro osteoclast differentiation of BMMs with RANK-L and M-CSF (TRAP+ count); format: cell-based, mouse; settings: 10 uM ISO, counted after 5 days
Experimental: as §1

mature osteoclasts = test: cAMP production in mature osteoclasts (EIA); format: cell-based, mouse; settings: ISO 10 μM, calcitonin 100 pg/ml
Experimental: (a) In vitro osteoclastogenesis is not affected by Adrb2 deficiency. BBMs were differentiated with the indicated amounts of RANK-L and MCS-F and the number of TRAP+ osteoclasts was counted after 5 days. (b) In vitro osteoclast differentiation is not affected by Isoproterenol (ISO) treatment. BBMs were differentiated in presence of MCS-F and RANK-L with or without 10 uM ISO and the number of TRAP+ osteoclasts was counted after 5 days. […] BBMs were differentiated in presence of MCS-F and RANK-L and were treated by ISO (10 μM), dobutamine (Dobu, 10 μM) or calcitonin (100 pg/ml). Intracellular cAMP production was measured by EIA. (d) ISO stimulated osteoclast differentiation via stimulation of b2AR in osteoblasts. Osteoblasts and BMMs were co-cultured with 1,25(OH)2-vitamin D (10^-8 M) with or without ISO (10 uM) and the number of TRAP+ osteoclasts was counted after 4 days. (e) ISO induced Rank-l expression in osteoblasts, via b2AR. (f) ISO induced IL6 expression in osteoblasts, via b2AR. WT and Adrb2 primary osteoblasts were treated for the indicated time with ISO (10 μM) and gene expression was quantified by real-time RT-PCR. (g) Schematic diagram of the structure of Rank-1 and IL6 promoters. Boxes represent CREB-like consensus binding sites.
To test whether sympathetic signaling could affect osteoclast function, we treated TRAP-positive multinucleated osteoclasts with isoproterenol.

WT mature osteoclasts = test: Osteoclast function: resorption pits on dentine slices; format: cell-based, mouse
Source text: WT or Adrb2 BBMs were differentiated for 2 days with MCS-F and RANK-L, trypsinized and platted on dentine slices for 2 days. Resorption pits were stained with hematoxylin and resorption pit area was quantified (data not shown). To test whether sympathetic signaling could affect osteoclast function, we treated TRAP-positive multinucleated osteoclasts with isoproterenol.

WT mice [2] = test: Gene expression in bones of WT mice treated for 3 weeks; format: in vivo, mouse; settings: 3 weeks treatment
Source text: To determine the biological relevance of these findings we performed two experiments. First, we treated WT mice with isoproterenol for 3 weeks and analyzed bone resorption parameters and bone expression of Rank-l and IL6 at the end of this treatment period. […] Second, to determine the role that this physiological regulation may have in pathological conditions such as bone loss developing after menopause, we ovariectomized WT and Adrb2−l− mice at one month of age and analyzed them 3 months later. […] The increase in bone formation that persisted together with the absence of any increase in bone resorption explained why Adrb2−/− mice maintained a higher bone mass than WT mice.

osteoblasts and BMMs = test: Co-culture of osteoblasts and BMMs with 1,25-(OH)2 vitamin D3 (TRAP+ osteoclast count); format: cell-based, mouse; settings: for number of TRAP-positive multinucleated osteoclasts in co-culture: WT osteoblasts and WT BMMs, ISO 10 uM, 4 days
Experimental: as §1
To that end we performed co-culture of BMMs and osteoblasts prepared from mouse calvariae. In this assay treatment of osteoblasts with 1,25-(OH)2 vitamin D3 leads to the differentiation of BMMs into TRAP-positive multinucleated osteoclasts.

WT mice [3] = settings: stated as known property; cited from earlier work
WT mice [4] = test: Bone remodeling parameters in treated WT mice; format: in vivo, mouse
Source text: (a) von Kossa staining of vertebral sections. Six month old Adrb2−/− and Adrb2+/− mice display an increase in bone volume over tissue volume (BV/TV) compared to wt littermates. (b) Bone formation parameters: bone formation rate (BFR), osteoblast surface over bone surface (ObS/BS) and osteoblast number over bone perimeter (ObNb/BPm) are increased in Adrb2−/− and Adrb2+/− mice. (c) Bone resorption parameters: osteoclast surface over bone surface (OcS/BS), osteoclast number over bone perimeter (OcNb/BPm) and urinary elimination of deoxypiridinoline (dpd) are decreased in Adrb2−/− and Adrb2+/− mice.
First, we analyzed mice lacking only one copy of Adrb2 and compared them to WT mice treated with propranolol, a β-adrenergic receptor antagonist whose administration enhances bone formation in mice. Expression of Adrb2 was first assayed in WT, Adrb2−/− and Adrb2+/− osteoblasts. […] This was due to both an increase in bone formation and a decrease in bone resorption (FIGS. 1b and 1c). To our knowledge, this high bone mass is the only phenotypic consequence reported so far in the case of haploinsufficiency at the Adrb2 locus.

For CC(CCc1ccc(O)cc1)NCCc1ccc(O)c(O)c1 (stereo not drawn) [dobutamol], which “cAMP production in osteoblasts” value (WT osteoblasts) is on record?
The value was “did not and not”.

Which “induction of Rank-l expression” value (primary osteoblasts; Adrb2−/− osteoblasts) does the source give for CC(C)NCC(O)c1ccc(O)c(O)c1 (stereo not drawn) [isoproterenol] here?
Its value is “not detected”.

What about the “IL6 expression in osteoblasts” value (primary osteoblasts; ISO 10 μM) of the same molecule?
The value was “increased”.

What about the “IL6 expression in osteoblasts” value (primary osteoblasts; ISO 10 μM, listed as ISO) of the same molecule?
Its value is “induced”.

And the “Rank-l expression in osteoblasts (in words)” value (primary osteoblasts; WT osteoblasts, ISO 10 μM)?
The value was “induced”.

And the “increase of Rank-l expression” value (primary osteoblasts; WT osteoblasts, ISO 10 μM)?
The value was about 20 fold.

And the “expression of IL2” value (primary osteoblasts; osteoblasts, data not shown)?
Its value is “did not affect”.

What about the “expression of ILI α” value (primary osteoblasts; osteoblasts, data not shown) of the same molecule?
The value was “did not affect”.

What about the “expression of M-CSF” value (primary osteoblasts; osteoblasts, data not shown) of the same molecule?
Its value is “did not affect”.

What about the “expression of osteoprotegerin (Opg)” value (primary osteoblasts; osteoblasts, data not shown) of the same molecule?
The value was “did not affect”.

And the “number of TRAP-positive multinucleated osteoclasts” value [1]?
Its value is “did not affect”.

What about the “number of TRAP-positive multinucleated osteoclasts” value ([1]; listed as Isoproterenol) of the same molecule?
Its value is “not affected”.

What about the “cAMP production in osteoblasts” value (WT osteoblasts) of the same molecule?
Its value is “enhances”.

What about the “cAMP production in osteoblasts” value (WT osteoblasts; listed as Isoproterenol) of the same molecule?
Its value is “stimulate”.

What about the “intracellular cAMP production in osteoclasts” value (shortened to “intracellular cAMP production”) (mature osteoclasts) of the same molecule?
The value was “did not induce any significant”.

What about the “intracellular cAMP production” value (mature osteoclasts; listed as ISO) of the same molecule?
The value was “does not induce”.

What about the “osteoclast function (pit formation / resorption pit area on dentine slices)” value (WT mature osteoclasts) of the same molecule?
The value was “did not affect”.

And the “osteoclast function (pit formation / resorption pit area on dentine slices)” value (WT mature osteoclasts; listed as ISO)?
The value was “normal”.

What about the “IL6 expression in bones” value (WT mice [2]) of the same molecule?
The value was “increased”.

And the “OPG expression in bones” value (WT mice [2])?
Its value is “unaffected”.

What about the “Rank-l expression in bones” value (WT mice [2]) of the same molecule?
The value was “increased”.

And the “osteoclast differentiation in co-culture” value (osteoblasts and BMMs; Adrb2−/− osteoblasts with WT BMMs)?
Its value is “could not enhance”.

And the “number of TRAP-positive multinucleated osteoclasts in co-culture” value (osteoblasts and BMMs)?
The value was “significantly increased”.

And the “number of TRAP-positive multinucleated osteoclasts in co-culture” value (osteoblasts and BMMs; listed as ISO)?
Its value is “stimulated”.

What about the “osteoclast differentiation in co-culture” value (osteoblasts and BMMs; WT osteoblasts with Adrb2−/− BMMs) of the same molecule?
The value was “increased”.

For CC(C)NCC(O)COc1cccc2ccccc12 (stereo not drawn) [propranolol], which bone formation (WT mice [3]) is on record?
The bone formation was “enhances”.

And the “bone resorption parameters (OcS/BS, OcNb/BPm, urinary dpd)” value (WT mice [4])?
Its value is “do not display a significant decrease; also recorded: did not affect”.

Which “cAMP production in osteoblasts” value (WT osteoblasts) does the source give for CC(C)(C)NCC(O)c1ccc(O)c(CO)c1 (stereo not drawn) [salbutamol] here?
The value was “stimulated”.

For calcitonin, which “intracellular cAMP production” value (mature osteoclasts) is on record?
The value was “robust stimulation”.

B1: Parathyroid hormone (peptide, UniProt P01270 32-115, looked up)
Parathyroid hormone: SVSEIQLMHNLGKHLNSMERVEWLRKKLQDVHNFVALGAPLAPRDAGSQRPRKKEDNVLVESHEKSLGEADKADVNVLTKAKSQ
modifications: Parathyroid hormone
notes: Parathyroid hormone (PTH)
Which “cAMP production in osteoblasts” value (WT osteoblasts) does the source give for B1 here?
Its value is “stimulate”.
